# Reference: patent publication US8980899B2, “Methods of inhibiting Ire1” (The Regents of the University of California, priority 2009, dated 2015)
# What was measured:
# [1] = target: T1, yIre1 (Saccharomyces cerevisiae, UniProt P32361); test: RNase cleavage assay (yIre1 activation); format: biochemical, yeast; settings: yIre1 RNA cleavage, 30° C., 2 mM ADP; Control (no inhibitor) 0.000504
# T1 sequence (P32361 19-1115): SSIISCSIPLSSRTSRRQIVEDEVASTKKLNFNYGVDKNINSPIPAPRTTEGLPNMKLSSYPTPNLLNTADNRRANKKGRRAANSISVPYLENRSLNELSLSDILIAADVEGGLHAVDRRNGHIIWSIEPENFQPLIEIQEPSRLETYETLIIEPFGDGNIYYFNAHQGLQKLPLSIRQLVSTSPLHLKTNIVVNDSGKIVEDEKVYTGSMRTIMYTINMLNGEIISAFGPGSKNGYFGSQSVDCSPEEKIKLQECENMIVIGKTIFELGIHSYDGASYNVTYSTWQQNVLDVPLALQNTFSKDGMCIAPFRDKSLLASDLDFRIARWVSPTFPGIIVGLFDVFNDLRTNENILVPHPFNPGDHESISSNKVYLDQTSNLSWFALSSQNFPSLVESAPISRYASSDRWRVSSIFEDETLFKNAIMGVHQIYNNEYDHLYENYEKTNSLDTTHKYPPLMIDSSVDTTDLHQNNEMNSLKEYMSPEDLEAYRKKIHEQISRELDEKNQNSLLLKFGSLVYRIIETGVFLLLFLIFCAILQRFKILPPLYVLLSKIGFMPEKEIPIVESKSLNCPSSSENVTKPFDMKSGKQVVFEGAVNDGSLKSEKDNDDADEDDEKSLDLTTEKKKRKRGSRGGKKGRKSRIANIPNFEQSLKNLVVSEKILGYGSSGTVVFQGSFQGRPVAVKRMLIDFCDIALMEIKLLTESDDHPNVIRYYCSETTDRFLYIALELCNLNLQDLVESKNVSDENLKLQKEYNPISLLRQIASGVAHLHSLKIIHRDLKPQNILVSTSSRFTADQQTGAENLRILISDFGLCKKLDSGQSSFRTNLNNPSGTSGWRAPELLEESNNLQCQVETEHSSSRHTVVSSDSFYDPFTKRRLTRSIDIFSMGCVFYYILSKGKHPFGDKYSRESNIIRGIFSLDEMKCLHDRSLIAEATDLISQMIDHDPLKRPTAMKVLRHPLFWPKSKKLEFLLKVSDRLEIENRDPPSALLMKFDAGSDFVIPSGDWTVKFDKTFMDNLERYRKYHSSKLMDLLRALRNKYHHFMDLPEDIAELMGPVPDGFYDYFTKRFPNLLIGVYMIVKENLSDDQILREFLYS
# Protocol: RNA cleavage reactions were conducted at 30° C. in buffer containing 20 mM HEPES (pH 7.5), 70 mM NaCl, 2 mM ADP (pH 7.0), 2 mM Mg(OAc)2, 5 mM DTT, 5% glycerol, less than 1 nM ^32p-labeled RNA substrate, and 3 nM-[…] Ire1. Reaction solutions and buffers were designed using Biochem Lab Solutions 3.5. Reactions were prepared such that 1 μl of RNA was added to 9 μl of pre-warmed reaction mixture containing all components except RNA. Typically, 3-10 minute time courses were collected starting from 5 seconds for the first time point. At time intervals, 1 μl of solution was withdrawn from each reaction and mixed with 6 μl stop solution containing 10 M urea, 0.1% SDS, 0.1 mM EDTA, 0.05% xylene cyanol, and 0.05% bromophenol blue. The samples were separated by a denaturing 10% PAGE and exposed on a phosphor storage screen. The screens were scanned on a Storm or a Typhoon instrument and quantified using ImageQuant 5.0 or GelQuant.NET 1.4 programs. The data were plotted and fit in SigmaPlot 6.0.
# [2] = target: T2, yeast Ire1 (Saccharomyces cerevisiae, UniProt P32361); test: In vitro inhibition assay, cleavage of 32P-labeled RNA by yeast Ire1; format: biochemical; settings: for Ire1 activity with yeast Ire1: RNA cleavage, 32P-labeled RNA, 30° C., Control (no inhibitor) 0.1149
# T2 sequence (P32361 19-1115): T1 sequence (P32361 19-1115)
# [3] = target: Recombinant human Ire1-alpha (Homo sapiens, UniProt O75460); test: In vitro inhibition assay, cleavage of 32P-stem-loop RNA by human Ire1; format: biochemical; set-up: Ire1 activity with human Ire1 alpha: unit not given here; settings: for Ire1 activity with human Ire1 alpha: RNA cleavage, 1 μM Ire1, 32P-labeled RNA, 30° C., Control (no inhibitor) 0.085; for Ire1 activity: in vitro cleavage of 32P-stem-loop RNA by human Ire1, AD series, Control (no inhibitor) 8.8310e−3
# Protocol: Recombinant human […]) was mixed with reaction buffer, inhibitor solution in DMSO, and ^32P-labeled RNA substrate having sequence 5'-[…] NO:1). Reactions were conducted at 30° C. and initiated by adding the RNA to reaction pre-mix containing all the components minus the RNA. […] (The reaction mixture may be modified by using different components or concentrations, different RNA substrate, or different Ire1 protein construct.) At time intervals (0 seconds, 10 seconds, 30 seconds, and 3 minutes), 1 μl aliquots of reaction mixture were taken and quenched in 10 M Urea, 0.1% SDS. Samples were analyzed by denaturing polyacrylamide gel electrophoresis and quantified using Typhoon phosphorImager. […] Reactions with Irestatin and exemplary compounds were conducted analogously. Irestatin was a gift obtained from the SPECS screen available as 5 mM solution in DMSO at UCSF small molecule discovery center.
# [4] = target: hIre1 (Homo sapiens, UniProt O75460); test: Titrations of Ire1 inhibitors to measure Ki using 1 μM hIre1; format: biochemical; settings: 1 μM hIre1, 5′-32p-HP21, 30° C.
# Protocol: Recombinant human Ire1-alpha (1 μM f/c) was mixed with reaction buffer, inhibitor solution in DMSO, and ^32P-labeled RNA substrate having sequence 5′-UGCACCUCUGCAGCAGGUGCA (SEQ ID NO:1). Reactions were conducted at 30° C. and initiated by adding the RNA to reaction pre-mix containing all the components minus the RNA. The final reaction contained: 20 mM HEPES pH 7, 70 mM NaCl, 2 mM MgCl2, 5% glycerol, 4 mM DTT, 10% DMSO, 1 μM Ire1 and <1 nM 32P-labeled RNA. (The reaction mixture may be modified by using different components or concentrations, different RNA substrate, or different Ire1 protein construct.)
# At time intervals (0 seconds, ˜10 seconds, ˜30 seconds, and ˜3 minutes), 1 μl aliquots of reaction mixture were taken and quenched in 10 M Urea, 0.1% SDS. Samples were analyzed by denaturing polyacrylamide gel electrophoresis and quantified using Typhoon phosphorImager.
# Inhibition was measured by the extent of RNA cleavage slowdown in the presence of inhibitor (0.3-100 μM) compared to reaction containing no inhibitors.
# Sequence of Recombinant human Ire1-alpha (O75460 19-977): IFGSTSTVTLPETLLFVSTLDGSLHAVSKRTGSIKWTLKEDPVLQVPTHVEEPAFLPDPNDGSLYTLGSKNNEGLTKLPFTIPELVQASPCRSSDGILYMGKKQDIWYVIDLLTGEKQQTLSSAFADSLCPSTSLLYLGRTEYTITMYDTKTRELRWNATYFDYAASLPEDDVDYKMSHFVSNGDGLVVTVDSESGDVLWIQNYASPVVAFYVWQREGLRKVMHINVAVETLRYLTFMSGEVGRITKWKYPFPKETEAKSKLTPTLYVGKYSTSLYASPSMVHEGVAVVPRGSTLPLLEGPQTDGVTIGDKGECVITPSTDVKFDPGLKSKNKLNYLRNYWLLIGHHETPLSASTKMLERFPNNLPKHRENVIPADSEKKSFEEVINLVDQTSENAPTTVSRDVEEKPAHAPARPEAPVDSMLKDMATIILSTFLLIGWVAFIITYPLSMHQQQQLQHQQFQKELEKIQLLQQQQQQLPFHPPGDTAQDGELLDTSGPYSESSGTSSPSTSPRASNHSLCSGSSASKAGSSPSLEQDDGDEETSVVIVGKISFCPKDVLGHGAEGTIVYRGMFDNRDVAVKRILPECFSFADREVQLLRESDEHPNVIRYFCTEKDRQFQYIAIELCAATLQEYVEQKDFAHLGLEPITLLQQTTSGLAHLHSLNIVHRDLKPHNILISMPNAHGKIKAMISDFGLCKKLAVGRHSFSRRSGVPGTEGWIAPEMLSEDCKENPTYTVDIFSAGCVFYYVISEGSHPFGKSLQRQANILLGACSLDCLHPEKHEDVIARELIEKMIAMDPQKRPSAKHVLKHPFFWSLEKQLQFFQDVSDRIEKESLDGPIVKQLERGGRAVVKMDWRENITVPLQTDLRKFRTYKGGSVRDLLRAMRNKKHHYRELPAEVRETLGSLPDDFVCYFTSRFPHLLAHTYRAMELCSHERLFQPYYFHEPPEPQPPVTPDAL
# Sequence of hIre1 (O75460 19-977): as above
Ire1 activity with yeast Ire1 [2],Ire1 activity with human Ire1 alpha [3],Ire1 activity [3],Compound,other results
3.26E−03,0.05508,,"CC(C)n1nc(-c2ccc(NC(=O)Nc3cccc(C(F)(F)F)c3)cc2)c2c(N)ncnc21 [AD57, 1-(4-(4-amino-1-isopropyl-1H-pyrazolo[3,4-d]pyrimidin-3-yl)phenyl)-3-(3-(trifluoromethyl)phenyl)urea]",
,,1.2650e−3,Nc1ncnc2c1c(-c1ccc(NC(=O)Nc3cccc(C(F)(F)F)c3)cc1)nn2[C@H]1CCN(C(=O)Nc2cccc(C(F)(F)F)c2)C1 [AD71c],
,,6.4950e−3,"Nc1ncnc2c1c(-c1ccc(NC(=O)c3cccc(C(F)(F)F)c3)cc1)nn2[C@@H]1CCNC1 [AD72, N-(4-(4-amino-1-((R)-pyrrolidin-3-yl)-1H-pyrazolo[3,4-d]pyrimidin-3-yl)phenyl)-3-(trifluoromethyl)benzamide]",
5.00E−03,0.1247,,"Nc1ncnc2c1c(Cc1cccc(NC(=O)c3cccc(C(F)(F)F)c3)c1)nn2Cc1ccccc1 [BB5, N-(3-((4-amino-1-benzyl-1H-pyrazolo[3,4-d]pyrimidin-3-yl)methyl)phenyl)-3-(trifluoromethyl)benzamide]",

# The next lines start with the compound.
Compound,Ire1 activity with yeast Ire1 [2],Ire1 activity with human Ire1 alpha [3],Ire1 activity [3],other results
"CC(C)n1nc(Cc2cccc(NC(=O)Nc3cccc(C(F)(F)F)c3)c2)c2c(N)ncnc21 [AD36, 1-(3-((4-amino-1-isopropyl-1H-pyrazolo[3,4-d]pyrimidin-3-yl)methyl)phenyl)-3-(3-(trifluoromethyl)phenyl)urea]",1.05E−03,0.09575,,Ire1 activity [1]: 0.000322
"Nc1ncnc2c1c(-c1ccc(NC(=O)Nc3cccc(C(F)(F)F)c3)cc1)nn2C1CCCC1 [AD60, 1-(4-(4-amino-1-cyclopentyl-1H-pyrazolo[3,4-d]pyrimidin-3-yl)phenyl)-3-(3-(trifluoromethyl)phenyl)urea]",2.42E−03,0.02258,4.0180e−3,Ire1 activity [1]: 4.04E−05; inhibition of yIre1 (in words) [2]: can inhibit; inhibition of hIre1 (in words) [3]: can inhibit
Nc1ncnc2c1c(-c1ccc(NC(=O)Nc3cccc(C(F)(F)F)c3)cc1)nn2CCCO [AD64],,,6.9280e−4,Ki [4]: ~1 µM
Nc1ncnc2c1c(-c1ccc(NC(=O)c3cccc(C(F)(F)F)c3)cc1)nn2CCCO [AD65],,,,Ki [4]: ~30 µM
"Nc1ncnc2c1c(-c1ccc(NC(=O)Nc3cccc(C(F)(F)F)c3)cc1)nn2[C@H]1CCOC1 [AD66, 1-(4-(4-amino-1-((S)-tetrahydrofuran-3-yl)-1H-pyrazolo[3,4-d]pyrimidin-3-yl)phenyl)-3-(3-(trifluoromethyl)phenyl)urea]",,,0.0107,
"Nc1ncnc2c1c(-c1ccc(NC(=O)c3cccc(C(F)(F)F)c3)cc1)nn2[C@H]1CCOC1 [AD67, N-(4-(4-amino-1-((S)-tetrahydrofuran-3-yl)-1H-pyrazolo[3,4-d]pyrimidin-3-yl)phenyl)-3-(trifluoromethyl)benzamide]",,,0.0100,
"Nc1ncnc2c1c(-c1ccc(NC(=O)c3cccc(C(F)(F)F)c3)cc1)nn2[C@@H]1CCOC1 [AD68, N-(4-(4-amino-1-((R)-tetrahydrofuran-3-yl)-1H-pyrazolo[3,4-d]pyrimidin-3-yl)phenyl)-3-(trifluoromethyl)benzamide]",,,8.4550e−3,
"Nc1ncnc2c1c(-c1ccc(NC(=O)Nc3cccc(C(F)(F)F)c3)cc1)nn2[C@@H]1CCOC1 [AD69, 1-(4-(4-amino-1-((R)-tetrahydrofuran-3-yl)-1H-pyrazolo[3,4-d]pyrimidin-3-yl)phenyl)-3-(3-(trifluoromethyl)phenyl)urea]",,,0.0127,
"Nc1ncnc2c1c(-c1ccc(NC(=O)c3cccc(C(F)(F)F)c3)cc1)nn2[C@H]1CCNC1 [AD70, N-(4-(4-amino-1-((S)-pyrrolidin-3-yl)-1H-pyrazolo[3,4-d]pyrimidin-3-yl)phenyl)-3-(trifluoromethyl)benzamide]",,,9.0580e−3,
"Nc1ncnc2c1c(Cc1cccc(NC(=O)Nc3cccc(C(F)(F)F)c3)c1)nn2Cc1ccccc1 [BB6, 1-(3-((4-amino-1-benzyl-1H-pyrazolo[3,4-d]pyrimidin-3-yl)methyl)phenyl)-3-(3-(trifluoromethyl)phenyl)urea]",3.00E−03,0.1506,,
"CNC(=O)c1cc(Oc2ccc(NC(=O)Nc3ccc(Cl)c(C(F)(F)F)c3)cc2)ccn1 [Sorafenib, reference compound]",0.0683,0.03645,,
